Data: PubChem BioAssay (NCI)
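Abbreviation: GI50, concentration required for 50% inhibition of growth. At the TGI there is no net growth.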

Legend:
Experiment in all cases: NCI anticancer screen, dose series, 384-well format
MOLT-4 leukemia = test system: MOLT-4 leukemia
NCI-H226 lung = test system: NCI-H226 lung
NCI-H23 lung = test system: NCI-H23 lung
NCI-H322M lung = test system: NCI-H322M lung
NCI-H460 NSCLC = test system: NCI-H460 NSCLC
NCI-H522 lung = test system: NCI-H522 lung
NCI/ADR-RES ovarian = test system: NCI/ADR-RES ovarian
OVCAR-3 ovarian = test system: OVCAR-3 ovarian
OVCAR-4 ovarian = test system: OVCAR-4 ovarian
OVCAR-8 ovarian = test system: OVCAR-8 ovarian
PC-3 prostate = test system: PC-3 prostate
RPMI-8226 leukemia = test system: RPMI-8226 leukemia
RXF 393 renal = test system: RXF 393 renal
SF-268 CNS = test system: SF-268 CNS
SF-295 CNS = test system: SF-295 CNS
SF-539 CNS = test system: SF-539 CNS
SK-MEL-28 melanoma = test system: SK-MEL-28 melanoma
SK-MEL-5 melanoma = test system: SK-MEL-5 melanoma
SK-OV-3 ovarian = test system: SK-OV-3 ovarian
SN12C renal = test system: SN12C renal
SNB-19 CNS = test system: SNB-19 CNS
SNB-75 CNS = test system: SNB-75 CNS
SW-620 colon = test system: SW-620 colon
T-47D breast = test system: T-47D breast
TK-10 renal = test system: TK-10 renal
U251 glioblastoma = test system: U251 glioblastoma
UACC-257 melanoma = test system: UACC-257 melanoma
UACC-62 melanoma = test system: UACC-62 melanoma
UO-31 renal = test system: UO-31 renal

C[C@H](Nc1ccc2c(c1)OCCn1cc(N3C(=O)OC[C@H]3C(F)F)nc1-2)C(N)=O
TGI (MOLT-4 leukemia): 10.6 µM | GI50 (NCI-H226 lung): 38.5 µM | TGI (NCI-H226 lung): > 100 µM | GI50 (NCI-H23 lung): 21.8 µM | TGI (NCI-H23 lung): > 100 µM | GI50 (NCI-H322M lung): 2.85 µM | TGI (NCI-H322M lung): 57.3 µM | GI50 (NCI-H460 NSCLC): 0.802 µM | TGI (NCI-H460 NSCLC): > 100 µM | GI50 (NCI-H522 lung): 19 µM | TGI (NCI-H522 lung): > 100 µM | GI50 (NCI/ADR-RES ovarian): > 100 µM | TGI (NCI/ADR-RES ovarian): > 100 µM | GI50 (OVCAR-3 ovarian): 3.27 µM | TGI (OVCAR-3 ovarian): 21.7 µM | GI50 (OVCAR-4 ovarian): 43.8 µM | TGI (OVCAR-4 ovarian): > 100 µM | GI50 (OVCAR-8 ovarian): 27 µM | TGI (OVCAR-8 ovarian): > 100 µM | GI50 (PC-3 prostate): 3.82 µM | TGI (PC-3 prostate): > 100 µM | GI50 (RPMI-8226 leukemia): 16.1 µM | TGI (RPMI-8226 leukemia): 31.7 µM | GI50 (RXF 393 renal): 15.9 µM | TGI (RXF 393 renal): 71.4 µM | GI50 (SF-268 CNS): 24 µM | TGI (SF-268 CNS): > 100 µM | GI50 (SF-295 CNS): 14.6 µM | TGI (SF-295 CNS): > 100 µM | GI50 (SF-539 CNS): 17.6 µM | TGI (SF-539 CNS): > 100 µM | GI50 (SK-MEL-28 melanoma): 7.96 µM | TGI (SK-MEL-28 melanoma): > 100 µM | GI50 (SK-MEL-5 melanoma): 43.4 µM | TGI (SK-MEL-5 melanoma): > 100 µM | GI50 (SK-OV-3 ovarian): 0.049 µM | TGI (SK-OV-3 ovarian): > 100 µM | GI50 (SN12C renal): 5.74 µM | TGI (SN12C renal): > 100 µM | GI50 (SNB-19 CNS): 85.3 µM | TGI (SNB-19 CNS): > 100 µM | GI50 (SNB-75 CNS): 3.2 µM | TGI (SNB-75 CNS): > 100 µM | GI50 (SW-620 colon): 95.4 µM | TGI (SW-620 colon): > 100 µM | GI50 (T-47D breast): 0.0131 µM | TGI (T-47D breast): 0.0728 µM | GI50 (TK-10 renal): 4.03 µM | TGI (TK-10 renal): > 100 µM | GI50 (U251 glioblastoma): 75.8 µM | TGI (U251 glioblastoma): > 100 µM | GI50 (UACC-257 melanoma): > 100 µM | TGI (UACC-257 melanoma): > 100 µM | GI50 (UACC-62 melanoma): 5.64 µM | TGI (UACC-62 melanoma): > 100 µM | GI50 (UO-31 renal): 6.24 µM | TGI (UO-31 renal): > 100 µM
